Experimental data: patent publication US20240246908A1 (ORION CORPORATION, priority 2021, published 2024)

Tested on: YAP-TEAD
Test: TEAD inhibition, Hippo Pathway TEAD Reporter MCF-7 luciferase assay
Format: cell-based
Details: Homo sapiens, MCF7, 24 h, Hippo Pathway TEAD Reporter MCF-7 cells, luciferase activity after 24 h; read-out: IC50 of the test compounds on YAP-TEAD inhibition (Group)
Outline: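 MCF-7 cells carrying a TEAD-responsive firefly luciferase reporter, with nuclear YAP1 driving constitutive expression, were treated the day after plating with compounds (11 concentrations, 4 replicates; 0.1% DMSO control). After 24 h, luciferase was read by ONE-Glo luminescence and IC50 determined.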

Row | Compound | IC50
1 | COc1ccc(Oc2cc(C(F)(F)F)ccn2)cc1NC(=O)C1CNC(=O)N1C (stereo not shown) [Compound 200, N-(2-Methoxy-5-((4-(trifluoromethyl)pyridin-2-yl)oxy)phenyl)-3-methyl-2-oxoimidazolidine-4-carboxamide] | 50 to 300 nM
2 | COc1ccc(Oc2cccc(Cl)c2)cc1NC(=O)[C@@H]1CNC(=O)N1C [Compound 348, (S)—N-(5-(3-Chlorophenoxy)-2-methoxyphenyl)-3-methyl-2-oxoimidazolidine-4-carboxamide] | < 50 nM
3 | COc1ccc(Oc2ccc(C(F)(F)F)cc2)cc1NC(=O)[C@@H]1CNC(=O)N1C [Compound 141, (S)—N-(2-Methoxy-5-(4-(trifluoromethyl)phenoxy)phenyl)-3-methyl-2-oxoimidazolidine-4-carboxamide] | < 50 nM
4 | COc1ccc(Oc2cccc(F)c2)cc1NC(=O)C1CCC(=O)N1C(C)=O (stereo not shown) [Compound 2, 1-Acetyl-N-(5-(3-fluorophenoxy)-2-methoxyphenyl)-5-oxopyrrolidine-2-carboxamide] | 301 to 2000 nM
5 | COc1ccc(NC(=O)C2CCC(=O)N2C)cc1Cc1ccc(C(F)(F)F)cc1 (stereo not shown) [Compound 387, N-(4-Methoxy-3-(4-(trifluoromethyl)benzyl)phenyl)-1-methyl-5-oxo-pyrrolidine-2-carboxamide] | 301 to 2000 nM
6 | COc1cc(NC(=O)[C@H]2CCC(=O)N2C)cc(Oc2ccc(C(F)(F)F)cc2)c1 [Compound 278, (R)—N-(3-Methoxy-5-(4-(trifluoromethyl)phenoxy)phenyl)-1-methyl-5-oxo-pyrrolidine-2-carboxamide] | < 50 nM
7 | COc1ccc(Oc2ccc(OC(F)(F)F)cn2)cc1NC(=O)C1COC(=O)N1C (stereo not shown) [Compound 112, N-(2-Methoxy-5-((5-(trifluoromethoxy)pyridin-2-yl)oxy)phenyl)-3-methyl-2-oxooxazolidine-4-carboxamide] | 50 to 300 nM
8 | CNC(CCC(=O)O)C(=O)Nc1cc(Oc2ccc(C(F)(F)F)cc2)ccc1OC (stereo not shown) [Compound 375] | < 50 nM
9 | CN1C(=O)CC[C@@H]1C(=O)Nc1cc(O[C@H]2CC[C@H](C(F)(F)F)CC2)cc2c1OCC2 [Compound 151, (R)-1-Methyl-5-oxo-N-(5-(((trans)-4-(trifluoromethyl)cyclohexyl)oxy)-2,3-dihydrobenzofuran-7-yl)pyrrolidine-2-carboxamide] | < 50 nM
10 | COc1ccc(COc2cccc(F)c2)cc1NC(=O)C1CCC(=O)N1C(C)=O (stereo not shown) [Compound 3, 1-Acetyl-N-(5-((3-fluorophenoxy)methyl)-2-methoxyphenyl)-5-oxopyrrolidine-2-carboxamide] | 301 to 2000 nM
11 | COc1ccc(Oc2cccc(C(F)(F)F)c2)cc1NC(=O)CC1CCC(=O)N1 (stereo not shown) [Compound 9, N-(2-Methoxy-5-(3-(trifluoromethyl)phenoxy)phenyl)-2-(5-oxopyrrolidin-2-yl)acetamide] | 301 to 2000 nM
12 | COc1ccc(Oc2ccc(C(F)(F)F)cn2)cc1NC(=O)[C@H]1CCC(=O)N1C1CC1 [Compound 128, (R)-1-Cyclopropyl-N-(2-methoxy-5-((5-(trifluoromethyl)pyridin-2-yl)oxy)-phenyl)-5-oxopyrrolidine-2-carboxamide] | < 50 nM
13 | COc1ccc(Oc2ccc(C(F)F)cc2)cc1NC(=O)C1CNC(=O)N1C (stereo not shown) [Compound 149, N-(5-(4-(Difluoromethyl)phenoxy)-2-methoxyphenyl)-3-methyl-2-oxoimidazoli-dine-4-carboxamide] | < 50 nM
14 | COc1ccc(Oc2ccc(C(F)(F)F)cn2)cc1NC(=O)[C@H]1COC(=O)N1C [Compound 126, (R)—N-(2-Methoxy-5-((5-(trifluoromethyl)pyridin-2-yl)oxy)phenyl)-3-methyl-2-oxooxazolidine-4-carboxamide] | 50 to 300 nM
15 | COc1ccc(Oc2ncc(C(F)(F)F)cc2F)cc1NC(=O)[C@@H]1CN(C)C(=O)N1C(C)=O [Compound 343, (S)-3-Acetyl-N-(5-((3-fluoro-5-(trifluoromethyl)pyridin-2-yl)oxy)-2-methoxy-phenyl)-1-methyl-2-oxoimidazolidine-4-carboxamide] | 301 to 2000 nM
16 | CN1C(=O)CCC1C(=O)Nc1cc(Oc2ccc(F)cc2)cc2c1OCCO2 (stereo not shown) [Compound 241, N-(7-(4-Fluorophenoxy)-2,3-dihydrobenzo[b][1,4]dioxin-5-yl)-1-methyl-5-oxo-pyrrolidine-2-carboxamide] | 50 to 300 nM
17 | O=C1CCC(C(=O)Nc2cccc(Oc3cccc(C(F)(F)F)c3)c2)N1 (stereo not shown) [Compound 16, 5-Oxo-N-(3-(3-(trifluoromethyl)phenoxy)phenyl) pyrrolidine-2-carboxamide] | 301 to 2000 nM
18 | CN1C(=O)CCC1C(=O)Nc1cc(Oc2ccc(OC(F)(F)F)cc2)ccc1F (stereo not shown) [Compound 328, N-(2-Fluoro-5-(4-(trifluoromethoxy)phenoxy)phenyl)-1-methyl-S-oxopyrrolidine-2-carboxamide] | 50 to 300 nM
19 | COc1ccc(Oc2cccc(Cl)c2)cc1NC(=O)C1CCC(=O)N1C (stereo not shown) [Compound 316, N-(5-(3-Chlorophenoxy)-2-methoxyphenyl)-1-methyl-5-oxopyrrolidine-2-carboxamide] | < 50 nM
20 | COc1ccc(Oc2ccc(C(F)(F)F)cc2F)cc1NC(=O)[C@@H]1CCC(=O)N1C [Compound 398, (S)—N-(5-(2-Fluoro-4-(trifluoromethyl)phenoxy)-2-methoxyphenyl)-1-methyl-5-oxopyrrolidine-2-carboxamide] | < 50 nM
21 | CN1C(=O)CC[C@H]1C(=O)Nc1cc(Oc2ccc(C(F)(F)F)cn2)cc2c1OCCC2 [Compound 174, (S)-1-Methyl-5-oxo-N-(6-((5-(trifluoromethyl)pyridin-2-yl)oxy)chroman-8-yl)pyrrolidine-2-carboxamide] | 50 to 300 nM
22 | COc1ccc(Oc2ccc(C(F)(F)F)cc2)cc1NC(=O)C1CNCC(=O)N1C (stereo not shown) [Compound 374, N-(2-Methoxy-5-(4-(trifluoromethyl)phenoxy)phenyl)-1-methyl-6-oxopiperazine-2-carboxamide] | 301 to 2000 nM
23 | CN1C(=O)CCC1C(=O)Nc1cc(OCc2cccc(C(F)(F)F)c2)cc2c1OCC2 (stereo not shown) [Compound 238, 1-Methyl-5-oxo-N-(5-((3-(trifluoromethyl)benzyl)oxy)-2,3-dihydrobenzofuran-7-yl)pyrrolidine-2-carboxamide] | 50 to 300 nM
24 | COc1ccc(OC2CCCCC2)cc1NC(=O)C1CCC(=O)N1C (stereo not shown) [Compound 286, N-(5-(Cyclohexyloxy)-2-methoxyphenyl)-1-methyl-5-oxopyrrolidine-2-carboxamide] | 50 to 300 nM
25 | COc1ccc(Oc2cccc(F)c2)cc1NC(=O)C1CCN(C(C)=O)C1 (stereo not shown) [Compound 413, 1-Acetyl-N-(5-(3-fluorophenoxy)-2-methoxyphenyl)pyrrolidine-3-carboxamide] | 301 to 2000 nM
26 | COc1ccc(COc2cccc(C(F)(F)F)c2)cc1NC(=O)C1CCC(=O)N1C(C)=O (stereo not shown) [Compound 50, 1-Acetyl-N-(2-methoxy-5-((3-(trifluoromethyl)phenoxy)methyl)phenyl)-5-oxopyrrolidine-2-carboxamide] | 301 to 2000 nM
27 | COc1ccc(COc2cccc(F)c2)cc1NC(=O)C1COC(=O)N1C (stereo not shown) [Compound 90, N-(5-((3-Fluorophenoxy)methyl)-2-methoxyphenyl)-3-methyl-2-oxo-oxazolidine-4-carboxamide] | 50 to 300 nM
28 | CN1C(=O)CCC1C(=O)Nc1cc(Oc2ccc(C(F)(F)F)cn2)cc2c1OCCC2 (stereo not shown) [Compound 177, 1-Methyl-5-oxo-N-(6-((5-(trifluoromethyl)pyridin-2-yl)oxy)chroman-8-yl)-pyrrolidine-2-carboxamide] | < 50 nM
